Structures are written as SMILES. A value given as a limit tells only on which side of the number the result lay.

Data set [1] in a line: Toxicity in sheep erythrocytes assessed as induction of hemolysis. The format is cell-based, Ovis aries, Erythrocyte. The settings on record: read-out: HD50 (the source's name).
Another data set relates to A549. In words: Cytotoxicity against human A549 cells by resazurin reduction test. The format is functional, cell-based. (Alamar Blue is a resazurin reagent that responds to reducing activity.)
For another data set, the system named is DLD-1. Nature of the data set: Cytotoxicity against human DLD1 cells by resazurin reduction test. The format is functional, cell-based.
For the next data set, the system named is MCF7. In words: Cytotoxicity against human MCF7 cells by resazurin reduction test. The format is functional, cell-based.
In a further data set the test system is PC-3. Nature of the data set: Cytotoxicity against human PC3 cells by resazurin reduction test. The format is functional, cell-based.
Data set [2] in a line: Cytotoxicity against human WS1 cells by resazurin reduction test. The format is cell-based.

With `C=C(C)[C@@H]1CC[C@]2(CO)CC[C@]3(C)[C@H](CC[C@@H]4[C@@]5(C)CC[C@H](O[C@@H]6O[C@H](CO)[C@@H](O[C@@H]7O[C@@H](C)[C@H](O)[C@@H](O)[C@H]7O)[C@H](O)[C@H]6O[C@@H]6O[C@@H](C)[C@H](O)[C@@H](O)[C@H]6O)C(C)(C)[C@@H]5CC[C@]43C)[C@@H]12`, the HC50 in data set [1] was above 100 µM. In addition, the concentration for half-maximal inhibition (IC50) (with A549; in the data set on DLD-1; in the data set on MCF7; in the data set on PC-3; in data set [2]) was above 50 µM in each case.

On to `C=C(C)[C@@H]1CC[C@]2(C)CC[C@]3(C)[C@H](CC[C@@H]4[C@@]5(C)CC[C@H](O)C(C)(C)[C@@H]5CC[C@]43C)[C@@H]12` [LUPEOL], for which the HC50 in data set [1] was above 100 µM. Moreover, the IC50 (with A549; with DLD-1; in the data set on MCF7; in the data set with PC-3; in data set [2]) was above 50 µM throughout.

`C=C(C)[C@@H]1CC[C@]2(C)CC[C@]3(C)[C@H](CC[C@@H]4[C@@]5(C)CC[C@H](O[C@@H]6O[C@H](CO)[C@@H](O[C@@H]7O[C@@H](C)[C@H](O)[C@@H](O)[C@H]7O)[C@H](O)[C@H]6O[C@@H]6O[C@@H](C)[C@H](O)[C@@H](O)[C@H]6O)C(C)(C)[C@@H]5CC[C@]43C)[C@@H]12`: the HC50 in data set [1] is 30 µM. Also, the half-inhibitory concentration (IC50) (with A549; with DLD-1; with MCF7; with PC-3; in data set [2]) was above 50 µM in each case.

With `CC1(C)CC[C@]23CC[C@]4(C)[C@H](CC[C@@H]5[C@@]6(C)CC[C@H](O)C(C)(C)[C@@H]6CC[C@]54C)[C@H]2[C@H]1OC3` [ALLOBETULIN], the HC50 in data set [1] is above 100 µM. Further, the half-inhibitory concentration (IC50) (in the data set with A549; in the data set on DLD-1; in the data set with MCF7; in the data set with PC-3; in data set [2]) was above 50 µM in each case.

In the case of `C[C@@H]1O[C@@H](O[C@H]2[C@H](O[C@H]3CC[C@]4(C)[C@H]5CC[C@@H]6[C@H]7[C@H]8OC[C@@]7(CCC8(C)C)CC[C@@]6(C)[C@]5(C)CC[C@H]4C3(C)C)O[C@H](CO)[C@@H](O[C@@H]3O[C@@H](C)[C@H](O)[C@@H](O)[C@H]3O)[C@@H]2O)[C@H](O)[C@H](O)[C@H]1O`, the HC50 in data set [1] was determined as 90 µM. The IC50 in the data set with A549 is 14 µM; in the data set on DLD-1, 13 µM; in the data set with MCF7, 15 µM; with PC-3 it was 13 µM; in data set [2], 9 µM.

Consider `C[C@@H]1O[C@@H](O[C@H]2[C@H](O[C@H]3CC[C@]4(C)[C@H]5CC[C@@H]6[C@H]7[C@H]8OC(=O)[C@@]7(CCC8(C)C)CC[C@@]6(C)[C@]5(C)CC[C@H]4C3(C)C)O[C@H](CO)[C@@H](O[C@@H]3O[C@@H](C)[C@H](O)[C@@H](O)[C@H]3O)[C@@H]2O)[C@H](O)[C@H](O)[C@H]1O`, for which the HC50 in data set [1] amounted to 8 µM. For the same compound, the IC50 in the data set with A549 came out at 13 µM; in the data set on DLD-1 it was 14 µM; with MCF7 it was 18 µM; in the data set with PC-3, 10 µM; in data set [2], 3.8 µM.

For `C=C(C)[C@@H]1CC[C@]2(C(=O)O)CC[C@]3(C)[C@H](CC[C@@H]4[C@@]5(C)CC[C@H](O[C@@H]6O[C@H](CO)[C@@H](O[C@@H]7O[C@@H](C)[C@H](O)[C@@H](O)[C@H]7O)[C@H](O)[C@H]6O[C@@H]6O[C@@H](C)[C@H](O)[C@@H](O)[C@H]6O)C(C)(C)[C@@H]5CC[C@]43C)[C@@H]12`, the HC50 in data set [1] was above 100 µM. Moreover, the IC50 (in the data set with A549; in the data set with DLD-1; in the data set with MCF7; in the data set on PC-3; in data set [2]) was above 50 µM each time.

For `C=C(C)[C@@H]1CC[C@]2(C(=O)O)CC[C@]3(C)[C@H](CC[C@@H]4[C@@]5(C)CC[C@H](O)C(C)(C)[C@@H]5CC[C@]43C)[C@@H]12` [BETULINIC ACID], in data set [1], the HC50 was above 100 µM. The compound further had an IC50 in data set [2] of 12 µM.

Take `CC1(C)CC[C@]23CC[C@]4(C)[C@H](CC[C@@H]5[C@@]6(C)CC[C@H](O)C(C)(C)[C@@H]6CC[C@]54C)[C@H]2[C@H]1OC3=O`: the HC50 in data set [1] was above 100 µM. Further, the IC50 (in the data set with A549; in the data set on DLD-1; in the data set on MCF7; with PC-3; in data set [2]) was above 50 µM in each case.

`C=C(C)[C@@H]1CC[C@]2(CO)CC[C@]3(C)[C@H](CC[C@@H]4[C@@]5(C)CC[C@H](O)C(C)(C)[C@@H]5CC[C@]43C)[C@@H]12` [BETULIN]: in data set [1], the HC50 is above 100 µM. Also, half-maximal inhibition in data set [2] (IC50) required 3.6 µM.

The IC50 is the midpoint of a concentration-inhibition curve. Low values mean greater potency in that assay, high ones weaker potency in that assay.

(Values after ChEMBL document CHEMBL1153966, “Synthesis, cytotoxicity, and haemolytic activity of chacotrioside lupane-type neosaponins and their germanicane-type rearrangement products” (Bioorg Med Chem Lett, 2009).)
